From patent EP3748362A1, “IN VITRO METHOD FOR DETECTING RENAL DISEASE” (Fundacion Instituto De Investigacion Sanitaria Fundacion …, priority 2019, dated 2020)

Assays:
TRAF3 [1] = experiment: TRAF3 western blot in TWEAK-stimulated PBMCs from healthy donors; format: cell-based, Human; details: paricalcitol 15 umol/L 48 hours before TWEAK 100 ng/ml for 24 hours
TRAF3 [2] = experiment: TRAF3 western blot in TWEAK-stimulated HK2 cells; format: cell-based, Human; details: paricalcitol 15 umol/L 48 hours before TWEAK 100 ng/ml for 24 hours
Method: Human kidney proximal tubule epithelial cells (HK2 cell line, ATCC CRL-2190) were grown in RPMI 1640 with 10% fetal bovine serum (FBS), 1% glutamine, 100 U/ml penicillin, 100 µg/ml streptomycin, 5 µg/ml insulin-transferrin-selenite and 36 ng/ml hydrocortisone in 5% CO2 at 37° C. When cells reached 60 to 70% confluence, they were serum-depleted for 24 hours before the experiment.
Cells were stimulated with 100ng/ml recombinant human soluble TWEAK (Millipore) or p-200 µg/ml cresyl-sulfate (Raymond Vanholder and Griet Glorieux, University of Gent, Belgium). Concentrations of TWEAK and p-cresyl-sulfate were based on previously published dose-response experiments (Poveda et al. 2014; Sanz et al. 2008). […] DMSO, used as a solvent in some cases, had no effect on cell viability or on gene expression levels.
(§1) For western blot, cell (25 µg/lane) and kidney (100-150 µg/lane) protein extracts were separated on 6%-12% polyacrylamide-SDS gels under reducing conditions. […] Autoradiographs were scanned using the Gel Doc™ EZ imager and analyzed with the Image Lab 3.0 software (BioRad).

TRAF3 [3] = experiment: TRAF3 protein (western blot) and mRNA (real time RT-PCR) levels in PBMCs from ESRD patients treated or not with paricalcitol; format: in vivo, human; details: PBMCs of paricalcitol-treated ESRD patients on hemodialysis
Method: Intracellular protein and mRNA levels were measured in PBMCs from ESRD patients on hemodialysis. Inclusion criteria were as follows: age >45 years; male sex; informed consent; and absence of active inflammatory, infectious, or malignant diseases at the initiation or during the study. This study was approved by the IIS-Fundación Jiménez Diaz Ethics Committee. Patients were enrolled after providing written informed consent. PBMCs were separated from whole blood samples (30 ml into EDTA tubes) by a density gradient centrifugation method using Ficoll density gradient centrifugation. In total, 50x10^6 of PBMCs were obtained from 30 ml of whole blood and 6x10^6 PBMCs were used to isolate protein, RNA and nuclear/cytosolic protein levels using the NE-PER Reagent (Pierce) following the manufacturer's instructions.
as §1
Total RNA was isolated from cells and mouse kidney samples with Trizol (Invitrogen). […] The mRNA copy numbers were calculated for each sample by the instrument software using Ct value. Results are expressed in copy numbers, calculated relative to unstimulated cells or control mice, after normalization against 18S.

NF-κB2 = experiment: Non-canonical NF-κB2 activation in TWEAK-stimulated PBMCs from healthy donors; format: cell-based, Human; details: 12 µM paricalcitol 24 hours, TWEAK 100 ng/ml, p52 levels

With C[C@H](/C=C/[C@H](C)C(C)(C)O)[C@H]1CC[C@H]2/C(=C/C=C3C[C@@H](O)C[C@H](O)C3)CCC[C@]12C [paricalcitol] as the compound, how does the “TWEAK-induced TRAF3 degradation” value (TRAF3 [1]) read?
The value was “inhibited”.

And the “TWEAK-induced TRAF3 protein levels” value (TRAF3 [2])?
Its value is “restored TWEAK-induced TRAF3 protein levels to values similar to control-untreated cells”.

And the “TRAF3 mRNA levels” value (TRAF3 [3]; real time RT-PCR)?
The value was “no changes”.

What about the TRAF3 protein levels (TRAF3 [3]; western blot, vs healthy controls) of the same compound?
The TRAF3 protein levels was “restored to values in the range of healthy controls”.

And the “TWEAK-induced NF-κB2 activation” value (NF-κB2)?
Its value is “inhibited”.
